Key:
Test in all cases: relative viability (nuclei count vs DMSO), 5 days (fraction); higher = more cells survive
GW-2580 + Olaparib = compound: COC1=CC=C(C=C1)COC2=C(C=C(C=C2)CC3=CN=C(N=C3N)N)OC [GW-2580] + O=C(c1cc(Cc2n[nH]c(=O)c3ccccc23)ccc1F)N1CCN(C(=O)C2CC2)CC1 [Olaparib] (partner 8 µM)
Method in brief: (§1)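 Relative viability is defined as nuclei in treated wells over nuclei in vehicle wells. Duplicate plates were run and medians reported. Lung cancer cell lines in 1536-well plates were dosed by pin tool one day after seeding, with one drug or with a fixed anchor-drug dose plus five library-drug doses (not always all listed) in √10 steps, and nuclei were counted after 5 days.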

GW-2580 + Tozasertib = compound: COC1=CC=C(C=C1)COC2=C(C=C(C=C2)CC3=CN=C(N=C3N)N)OC [GW-2580] + Cc1cc(Nc2cc(N3CCN(C)CC3)nc(Sc3ccc(NC(=O)C4CC4)cc3)n2)n[nH]1 [Tozasertib] (partner 0.1 µM)
Method in brief: as §1

Fedratinib + Crizotinib = compound: Cc1cnc(Nc2ccc(OCCN3CCCC3)cc2)nc1Nc1cccc(S(=O)(=O)NC(C)(C)C)c1 [Fedratinib] + C[C@@H](Oc1cc(-c2cnn(C3CCNCC3)c2)cnc1N)c1c(Cl)ccc(F)c1Cl [Crizotinib] (partner 1 µM)
Method in brief: as §1

Fedratinib + Bortezomib = compound: Cc1cnc(Nc2ccc(OCCN3CCCC3)cc2)nc1Nc1cccc(S(=O)(=O)NC(C)(C)C)c1 [Fedratinib] + CC(C)C[C@H](NC(=O)[C@H](Cc1ccccc1)NC(=O)c1cnccn1)B(O)O [Bortezomib] (partner 0.002 µM)
Method in brief: as §1

GW-2580 + Foretinib = compound: COC1=CC=C(C=C1)COC2=C(C=C(C=C2)CC3=CN=C(N=C3N)N)OC [GW-2580] + COc1cc2c(Oc3ccc(NC(=O)C4(C(=O)Nc5ccc(F)cc5)CC4)cc3F)ccnc2cc1OCCCN1CCOCC1 [Foretinib] (partner 0.25 µM)
Method in brief: as §1

## UMC-11
GW-2580 + Olaparib; first compound 0.08 µM
  relative viability: 0.358
GW-2580 + Olaparib; first compound 0.8 µM
  relative viability: 0.375
GW-2580 + Olaparib; first compound 2.53 µM
  relative viability: 0.464
GW-2580 + Olaparib; first compound 8 µM
  relative viability: 0.436
GW-2580 + Tozasertib; first compound 0.08 µM
  relative viability: 0.206
GW-2580 + Tozasertib; first compound 0.8 µM
  relative viability: 0.284
GW-2580 + Tozasertib; first compound 2.53 µM
  relative viability: 0.198
GW-2580 + Tozasertib; first compound 8 µM
  relative viability: 0.197
Fedratinib + Crizotinib; first compound 0.1 µM
  relative viability: 0.573
Fedratinib + Crizotinib; first compound 0.3162 µM
  relative viability: 0.581
Fedratinib + Crizotinib; first compound 1 µM
  relative viability: 0.379
Fedratinib + Bortezomib; first compound 0.1 µM
  relative viability: 0.603
Fedratinib + Bortezomib; first compound 0.3162 µM
  relative viability: 0.758
Fedratinib + Bortezomib; first compound 1 µM
  relative viability: 0.396
GW-2580 + Foretinib; first compound 0.08 µM
  relative viability: 1.06
GW-2580 + Foretinib; first compound 0.8 µM
  relative viability: 1.04
GW-2580 + Foretinib; first compound 2.53 µM
  relative viability: 1.1
GW-2580 + Foretinib; first compound 8 µM
  relative viability: 1.23
